# PubChem BioAssay (NCI)
#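 The compound was tested at five concentrations on cells cultured in 96-well plates, with a 48-hour exposure period. GI50 is the concentration that inhibits growth by half. TGI: concentration producing complete growth inhibition.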
# Experiments:
# Assay in all cases: inhibition of tumour cell growth, NCI panel, 48 h
# MALME-3M melanoma = test system: MALME-3M melanoma
# U251 CNS = test system: U251 CNS
# COLO 205 colon = test system: COLO 205 colon
# NCI/ADR-RES ovarian = test system: NCI/ADR-RES ovarian
# NCI-H226 lung = test system: NCI-H226 lung
# CAKI-1 renal = test system: CAKI-1 renal
# UACC-62 melanoma = test system: UACC-62 melanoma
# OVCAR-4 ovarian = test system: OVCAR-4 ovarian
# MCF7 breast = test system: MCF7 breast
# SK-MEL-5 melanoma = test system: SK-MEL-5 melanoma
# CCRF-CEM leukemia = test system: CCRF-CEM leukemia
# OVCAR-3 ovarian = test system: OVCAR-3 ovarian
# SK-MEL-28 melanoma = test system: SK-MEL-28 melanoma
# HS 578T breast = test system: HS 578T breast
# LOX IMVI melanoma = test system: LOX IMVI melanoma
# HCT-15 colon = test system: HCT-15 colon
# HCC-2998 colon = test system: HCC-2998 colon
# A549 NSCLC = test system: A549 NSCLC
# A498 renal = test system: A498 renal
# SF-268 CNS = test system: SF-268 CNS
# IGROV1 ovarian = test system: IGROV1 ovarian
# RXF 393 renal = test system: RXF 393 renal
# UO-31 renal = test system: UO-31 renal
# NCI-H460 lung = test system: NCI-H460 lung
# 786-0 renal = test system: 786-0 renal
# HT29 colon = test system: HT29 colon
# HOP-62 NSCLC = test system: HOP-62 NSCLC
# MDA-MB-435 = test system: MDA-MB-435
# TK-10 renal = test system: TK-10 renal
# SNB-19 CNS = test system: SNB-19 CNS
# EKVX NSCLC = test system: EKVX NSCLC
# M14 melanoma = test system: M14 melanoma
# HL-60(TB) leukemia = test system: HL-60(TB) leukemia
# BT-549 breast = test system: BT-549 breast
# HOP-92 NSCLC = test system: HOP-92 NSCLC
# T-47D breast = test system: T-47D breast
# OVCAR-8 ovarian = test system: OVCAR-8 ovarian
# PC-3 prostate = test system: PC-3 prostate
# HCT-116 colon = test system: HCT-116 colon
# SN12C renal = test system: SN12C renal
# SF-539 CNS = test system: SF-539 CNS
# NCI-H23 lung = test system: NCI-H23 lung
# UACC-257 melanoma = test system: UACC-257 melanoma
# SK-MEL-2 melanoma = test system: SK-MEL-2 melanoma
# SNB-75 CNS = test system: SNB-75 CNS
# KM12 colon = test system: KM12 colon
# MDA-MB-231 breast = test system: MDA-MB-231 breast
# DU-145 prostate = test system: DU-145 prostate
# NCI-H522 lung = test system: NCI-H522 lung
# OVCAR-5 ovarian = test system: OVCAR-5 ovarian
# ACHN renal = test system: ACHN renal
# SK-OV-3 ovarian = test system: SK-OV-3 ovarian
# SF-295 CNS = test system: SF-295 CNS
# SR leukemia = test system: SR leukemia
# SW-620 colon = test system: SW-620 colon
# RPMI-8226 leukemia = test system: RPMI-8226 leukemia
# K-562 leukemia = test system: K-562 leukemia
# MOLT-4 leukemia = test system: MOLT-4 leukemia
smiles,measurement,setting,value
[O-][n+]1ccccc1Sc1nc(Sc2cccc[n+]2[O-])nc(Sc2cccc[n+]2[O-])n1,TGI,MALME-3M melanoma,4.06 µM
same,TGI,U251 CNS,3.3 µM
same,TGI,COLO 205 colon,2.3 µM
same,TGI,NCI/ADR-RES ovarian,29.1 µM
same,TGI,NCI-H226 lung,6.78 µM
same,TGI,CAKI-1 renal,2.11 µM
same,TGI,UACC-62 melanoma,3.67 µM
same,TGI,OVCAR-4 ovarian,4.74 µM
same,TGI,MCF7 breast,2.47 µM
same,TGI,SK-MEL-5 melanoma,3.07 µM
same,TGI,CCRF-CEM leukemia,> 100 µM
same,TGI,OVCAR-3 ovarian,6.49 µM
same,TGI,SK-MEL-28 melanoma,3.25 µM
same,TGI,HS 578T breast,10.9 µM
same,TGI,LOX IMVI melanoma,4 µM
same,TGI,HCT-15 colon,2.93 µM
same,TGI,HCC-2998 colon,2.89 µM
same,TGI,A549 NSCLC,13.9 µM
same,TGI,A498 renal,8.37 µM
same,TGI,SF-268 CNS,10.1 µM
same,TGI,IGROV1 ovarian,3.03 µM
same,TGI,RXF 393 renal,2.23 µM
same,TGI,UO-31 renal,3.25 µM
same,TGI,NCI-H460 lung,4.22 µM
same,TGI,786-0 renal,2.53 µM
same,TGI,HT29 colon,2.61 µM
same,TGI,HOP-62 NSCLC,9.17 µM
same,TGI,MDA-MB-435,4.15 µM
same,TGI,TK-10 renal,3.82 µM
same,TGI,SNB-19 CNS,26.1 µM
same,TGI,EKVX NSCLC,5.81 µM
same,TGI,M14 melanoma,3.06 µM
same,TGI,HL-60(TB) leukemia,> 100 µM
same,TGI,BT-549 breast,4.96 µM
same,TGI,HOP-92 NSCLC,3.03 µM
same,TGI,T-47D breast,8.85 µM
same,TGI,OVCAR-8 ovarian,1.99 µM
same,TGI,PC-3 prostate,2.19 µM
same,TGI,HCT-116 colon,2.53 µM
same,TGI,SN12C renal,3.48 µM
same,TGI,SF-539 CNS,4.06 µM
same,TGI,NCI-H23 lung,3.87 µM
same,TGI,UACC-257 melanoma,6.23 µM
same,TGI,SK-MEL-2 melanoma,3.71 µM
same,TGI,SNB-75 CNS,18.6 µM
same,TGI,KM12 colon,3.88 µM
same,TGI,MDA-MB-231 breast,2.73 µM
same,TGI,DU-145 prostate,10.2 µM
same,TGI,NCI-H522 lung,2.23 µM
same,TGI,OVCAR-5 ovarian,3.61 µM
same,TGI,ACHN renal,4.06 µM
same,TGI,SK-OV-3 ovarian,18.6 µM
same,TGI,SF-295 CNS,11.1 µM
same,TGI,SR leukemia,2.97 µM
Cc1cc2c3c(nc4ccccc42)C(=O)c2ccccc2-c3n1,TGI,U251 CNS,> 100 µM
same,TGI,COLO 205 colon,> 100 µM
same,TGI,NCI/ADR-RES ovarian,38.5 µM
same,TGI,NCI-H226 lung,67 µM
same,TGI,CAKI-1 renal,60.7 µM
same,TGI,UACC-62 melanoma,4.06 µM
same,TGI,OVCAR-4 ovarian,> 100 µM
same,TGI,MCF7 breast,51.2 µM
same,TGI,SK-MEL-5 melanoma,3.1 µM
same,TGI,CCRF-CEM leukemia,73.3 µM
same,TGI,OVCAR-3 ovarian,0.906 µM
same,TGI,SK-MEL-28 melanoma,43.3 µM
same,TGI,HS 578T breast,46.7 µM
same,TGI,HCT-15 colon,16.8 µM
same,TGI,HCC-2998 colon,53.9 µM
same,TGI,A549 NSCLC,44.9 µM
same,TGI,A498 renal,42.3 µM
same,TGI,SF-268 CNS,> 100 µM
same,TGI,IGROV1 ovarian,> 100 µM
same,TGI,RXF 393 renal,> 100 µM
same,TGI,UO-31 renal,> 100 µM
same,TGI,786-0 renal,> 100 µM
same,TGI,SW-620 colon,35.9 µM
same,TGI,HT29 colon,60.2 µM
same,TGI,HOP-62 NSCLC,23.5 µM
same,TGI,MDA-MB-435,3.11 µM
same,TGI,TK-10 renal,> 100 µM
same,TGI,SNB-19 CNS,> 100 µM
same,TGI,EKVX NSCLC,> 100 µM
same,TGI,M14 melanoma,27.3 µM
same,TGI,BT-549 breast,48.4 µM
same,TGI,HOP-92 NSCLC,> 100 µM
same,TGI,T-47D breast,> 100 µM
same,TGI,OVCAR-8 ovarian,34.8 µM
same,TGI,PC-3 prostate,80.9 µM
same,TGI,HCT-116 colon,75.4 µM
same,TGI,RPMI-8226 leukemia,> 100 µM
same,TGI,SN12C renal,> 100 µM
same,TGI,SF-539 CNS,61.2 µM
same,TGI,NCI-H23 lung,15.9 µM
same,TGI,UACC-257 melanoma,> 100 µM
same,TGI,SK-MEL-2 melanoma,47.8 µM
same,TGI,SNB-75 CNS,29 µM
same,TGI,K-562 leukemia,15.1 µM
same,TGI,KM12 colon,14.5 µM
same,TGI,MDA-MB-231 breast,78.1 µM
same,TGI,DU-145 prostate,> 100 µM
same,TGI,NCI-H522 lung,14.4 µM
same,TGI,MOLT-4 leukemia,24.1 µM
same,TGI,OVCAR-5 ovarian,> 100 µM
same,TGI,ACHN renal,> 100 µM
same,TGI,SK-OV-3 ovarian,84 µM
same,TGI,SF-295 CNS,60.4 µM
same,TGI,SR leukemia,37.2 µM
COc1cc2c3c(n(C)c(=O)c2cc1OC)-c1cc2c(cc1/C3=C\CCCN)OCO2,GI50,MALME-3M melanoma,10.1 µM
same,TGI,MALME-3M melanoma,38.6 µM
same,GI50,U251 CNS,1.66 µM
same,TGI,U251 CNS,10.6 µM
same,GI50,COLO 205 colon,7.67 µM
same,TGI,COLO 205 colon,> 100 µM
same,GI50,NCI/ADR-RES ovarian,14.5 µM
same,TGI,NCI/ADR-RES ovarian,74.4 µM
same,GI50,NCI-H226 lung,9.33 µM
same,TGI,NCI-H226 lung,31.6 µM
same,GI50,CAKI-1 renal,1.99 µM
same,TGI,CAKI-1 renal,8.62 µM
same,GI50,UACC-62 melanoma,2.13 µM
same,TGI,UACC-62 melanoma,13.7 µM
same,GI50,OVCAR-4 ovarian,17.9 µM
same,TGI,OVCAR-4 ovarian,52.7 µM
same,GI50,MCF7 breast,3.95 µM
same,TGI,MCF7 breast,42.8 µM
same,GI50,SK-MEL-5 melanoma,2.99 µM
same,TGI,SK-MEL-5 melanoma,13.8 µM
same,GI50,OVCAR-3 ovarian,13.8 µM
same,TGI,OVCAR-3 ovarian,29.8 µM
same,GI50,SK-MEL-28 melanoma,18.8 µM
same,TGI,SK-MEL-28 melanoma,> 100 µM
same,GI50,HS 578T breast,24.7 µM
same,TGI,HS 578T breast,87.6 µM
same,GI50,LOX IMVI melanoma,1.06 µM
same,TGI,LOX IMVI melanoma,2.52 µM
same,GI50,HCT-15 colon,3.18 µM
same,TGI,HCT-15 colon,15.5 µM
same,GI50,HCC-2998 colon,10.4 µM
same,TGI,HCC-2998 colon,32.3 µM
same,GI50,A549 NSCLC,4.3 µM
same,TGI,A549 NSCLC,> 100 µM
same,GI50,A498 renal,2.49 µM
same,TGI,A498 renal,18.2 µM
same,GI50,SF-268 CNS,4.93 µM
same,TGI,SF-268 CNS,66.9 µM
same,GI50,IGROV1 ovarian,2.24 µM
same,TGI,IGROV1 ovarian,32.4 µM
same,GI50,RXF 393 renal,5.84 µM
same,TGI,RXF 393 renal,32 µM
same,GI50,UO-31 renal,3.18 µM
same,TGI,UO-31 renal,20.3 µM
same,GI50,NCI-H460 lung,2.65 µM
same,TGI,NCI-H460 lung,> 100 µM
same,GI50,786-0 renal,1.23 µM
same,TGI,786-0 renal,5.02 µM
same,GI50,SW-620 colon,2.33 µM
same,TGI,SW-620 colon,32.9 µM
same,GI50,HT29 colon,4.57 µM
same,TGI,HT29 colon,> 100 µM
same,GI50,HOP-62 NSCLC,3.64 µM
same,TGI,HOP-62 NSCLC,26.6 µM
same,GI50,MDA-MB-435,8.6 µM
same,TGI,MDA-MB-435,41.6 µM
same,GI50,TK-10 renal,21.9 µM
same,TGI,TK-10 renal,> 100 µM
same,GI50,SNB-19 CNS,18.7 µM
same,TGI,SNB-19 CNS,> 100 µM
same,GI50,EKVX NSCLC,17.7 µM
same,TGI,EKVX NSCLC,> 100 µM
same,GI50,M14 melanoma,12.4 µM
same,TGI,M14 melanoma,> 100 µM
same,GI50,BT-549 breast,15.5 µM
same,TGI,BT-549 breast,38.9 µM
same,GI50,HOP-92 NSCLC,0.696 µM
same,TGI,HOP-92 NSCLC,7.22 µM
same,GI50,T-47D breast,10.9 µM
same,TGI,T-47D breast,> 100 µM
same,GI50,OVCAR-8 ovarian,10.1 µM
same,TGI,OVCAR-8 ovarian,22.4 µM
same,GI50,PC-3 prostate,3.31 µM
same,TGI,PC-3 prostate,31.9 µM
same,GI50,HCT-116 colon,4.64 µM
same,TGI,HCT-116 colon,25.2 µM
same,GI50,SF-539 CNS,1.65 µM
same,TGI,SF-539 CNS,6.25 µM
same,GI50,NCI-H23 lung,8.07 µM
same,TGI,NCI-H23 lung,> 100 µM
same,GI50,UACC-257 melanoma,30.5 µM
same,TGI,UACC-257 melanoma,> 100 µM
same,GI50,SK-MEL-2 melanoma,16.6 µM
same,TGI,SK-MEL-2 melanoma,45 µM
same,GI50,SNB-75 CNS,11.2 µM
same,TGI,SNB-75 CNS,31.6 µM
same,GI50,K-562 leukemia,1.31 µM
same,TGI,K-562 leukemia,12 µM
same,GI50,KM12 colon,11 µM
same,TGI,KM12 colon,84.8 µM
same,GI50,MDA-MB-231 breast,5.09 µM
same,TGI,MDA-MB-231 breast,31.5 µM
same,GI50,DU-145 prostate,5.57 µM
same,TGI,DU-145 prostate,54.1 µM
same,GI50,NCI-H522 lung,0.61 µM
same,TGI,NCI-H522 lung,23.4 µM
same,GI50,MOLT-4 leukemia,0.325 µM
same,TGI,MOLT-4 leukemia,3.64 µM
same,GI50,OVCAR-5 ovarian,3.75 µM
same,TGI,OVCAR-5 ovarian,26.2 µM
same,GI50,ACHN renal,2.09 µM
same,TGI,ACHN renal,8.64 µM
same,GI50,SK-OV-3 ovarian,41 µM
same,TGI,SK-OV-3 ovarian,> 100 µM
same,GI50,SF-295 CNS,1.83 µM
same,TGI,SF-295 CNS,8.15 µM
